# Assay results from US20260365670A1, “EGFR INHIBITORS AND USES THEREOF” (DIZAL (JIANGSU) PHARMACEUTICAL CO., LTD., priority 2022, published 2026).
# Like-named read-outs stand apart in the source and are kept apart here.
# How the values were obtained:
# EGFR wild type = biological target: T1, EGFR wild type (Homo sapiens, UniProt P00533); assay: Inhibition of EGFR wild type biochemical enzymatic activity (HTRF); settings: 1 mM ATP
# T1 construct: purchased Carna Bio
# Method in brief: (§1)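 Phosphorylation of TK Substrate-biotin (1 μM) was measured at 1 mM ATP over a 1 h room-temperature incubation with serially varied compound. Detection was by HTRF ratio and analysis by 4PL fit to IC50.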
# EGFR L858R = biological target: T2, EGFR L858R (Homo sapiens, UniProt P00533, L858R); assay: Inhibition of EGFR L858R biochemical enzymatic activity (HTRF); settings: 1 mM ATP
# T2 construct: purchased Carna Bio
# Method in brief: as §1
# EGFR L858R/T790M = biological target: T3, EGFR L858R/T790M (Homo sapiens, UniProt P00533, L858R/T790M); assay: Inhibition of EGFR L858R/T790M biochemical enzymatic activity (HTRF); settings: 1 mM ATP
# T3 construct: purchased Carna Bio
# Method in brief: as §1
# EGFR Exon19Del = biological target: T4, EGFR Exon19Del (Homo sapiens, UniProt P00533, DEL746-750); assay: Inhibition of EGFR Exon19Del biochemical enzymatic activity (HTRF); settings: read-out: IC50 @Del19
# T4 construct: purchased Carna Bio
# T4 sequence (P00533 with tags, fused parts or gaps DEL746-750 limits assumed): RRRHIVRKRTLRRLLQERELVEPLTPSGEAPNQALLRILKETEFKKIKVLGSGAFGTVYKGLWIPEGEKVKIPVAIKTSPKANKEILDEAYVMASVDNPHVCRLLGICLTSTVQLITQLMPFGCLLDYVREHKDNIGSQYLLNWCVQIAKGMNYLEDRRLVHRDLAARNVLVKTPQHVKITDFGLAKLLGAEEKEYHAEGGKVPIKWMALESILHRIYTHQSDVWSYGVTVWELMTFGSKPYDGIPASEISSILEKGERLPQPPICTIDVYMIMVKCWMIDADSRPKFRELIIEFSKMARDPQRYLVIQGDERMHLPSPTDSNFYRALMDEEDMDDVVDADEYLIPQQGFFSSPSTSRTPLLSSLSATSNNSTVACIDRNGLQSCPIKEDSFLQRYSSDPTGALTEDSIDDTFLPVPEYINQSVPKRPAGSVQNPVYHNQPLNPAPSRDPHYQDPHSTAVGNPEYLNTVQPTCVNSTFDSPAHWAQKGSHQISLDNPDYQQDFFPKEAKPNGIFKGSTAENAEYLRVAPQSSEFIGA
# Method in brief: as §1
# EGFR Exon19Del/T790M = biological target: T5, EGFR Exon19Del/T790M (Homo sapiens, UniProt P00533, DEL746-750/T790M); assay: Inhibition of EGFR Exon19Del/T790M biochemical enzymatic activity (HTRF); settings: 1 mM ATP
# T5 construct: purchased Carna Bio
# T5 sequence (P00533 with tags, fused parts or gaps DEL746-750/T790M limits assumed): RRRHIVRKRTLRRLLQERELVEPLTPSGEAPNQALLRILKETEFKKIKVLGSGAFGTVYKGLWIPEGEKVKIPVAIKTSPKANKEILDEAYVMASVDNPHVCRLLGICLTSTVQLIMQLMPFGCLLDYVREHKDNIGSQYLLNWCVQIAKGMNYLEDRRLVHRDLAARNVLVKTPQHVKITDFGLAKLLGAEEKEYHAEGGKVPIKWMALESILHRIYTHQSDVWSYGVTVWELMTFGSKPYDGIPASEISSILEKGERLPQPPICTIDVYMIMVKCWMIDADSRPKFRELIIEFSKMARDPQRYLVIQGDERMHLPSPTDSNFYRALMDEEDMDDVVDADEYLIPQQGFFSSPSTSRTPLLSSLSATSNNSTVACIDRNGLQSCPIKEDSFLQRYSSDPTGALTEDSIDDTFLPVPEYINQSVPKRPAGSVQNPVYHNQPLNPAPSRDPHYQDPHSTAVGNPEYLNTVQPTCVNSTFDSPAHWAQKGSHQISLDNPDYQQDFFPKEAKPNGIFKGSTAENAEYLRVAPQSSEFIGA
# Method in brief: as §1
# EGFR[T790M/C797S/L858R] = biological target: T6, EGFR[T790M/C797S/L858R] (Homo sapiens, UniProt P00533, C797S/L858R/T790M); assay: Inhibition of EGFR[T790M/C797S/L858R] biochemical enzymatic activity (HTRF); settings: 1 mM ATP
# T6 construct: purchased Carna Bio
# T6 sequence (P00533 25-1210 T790M/C797S/L858R): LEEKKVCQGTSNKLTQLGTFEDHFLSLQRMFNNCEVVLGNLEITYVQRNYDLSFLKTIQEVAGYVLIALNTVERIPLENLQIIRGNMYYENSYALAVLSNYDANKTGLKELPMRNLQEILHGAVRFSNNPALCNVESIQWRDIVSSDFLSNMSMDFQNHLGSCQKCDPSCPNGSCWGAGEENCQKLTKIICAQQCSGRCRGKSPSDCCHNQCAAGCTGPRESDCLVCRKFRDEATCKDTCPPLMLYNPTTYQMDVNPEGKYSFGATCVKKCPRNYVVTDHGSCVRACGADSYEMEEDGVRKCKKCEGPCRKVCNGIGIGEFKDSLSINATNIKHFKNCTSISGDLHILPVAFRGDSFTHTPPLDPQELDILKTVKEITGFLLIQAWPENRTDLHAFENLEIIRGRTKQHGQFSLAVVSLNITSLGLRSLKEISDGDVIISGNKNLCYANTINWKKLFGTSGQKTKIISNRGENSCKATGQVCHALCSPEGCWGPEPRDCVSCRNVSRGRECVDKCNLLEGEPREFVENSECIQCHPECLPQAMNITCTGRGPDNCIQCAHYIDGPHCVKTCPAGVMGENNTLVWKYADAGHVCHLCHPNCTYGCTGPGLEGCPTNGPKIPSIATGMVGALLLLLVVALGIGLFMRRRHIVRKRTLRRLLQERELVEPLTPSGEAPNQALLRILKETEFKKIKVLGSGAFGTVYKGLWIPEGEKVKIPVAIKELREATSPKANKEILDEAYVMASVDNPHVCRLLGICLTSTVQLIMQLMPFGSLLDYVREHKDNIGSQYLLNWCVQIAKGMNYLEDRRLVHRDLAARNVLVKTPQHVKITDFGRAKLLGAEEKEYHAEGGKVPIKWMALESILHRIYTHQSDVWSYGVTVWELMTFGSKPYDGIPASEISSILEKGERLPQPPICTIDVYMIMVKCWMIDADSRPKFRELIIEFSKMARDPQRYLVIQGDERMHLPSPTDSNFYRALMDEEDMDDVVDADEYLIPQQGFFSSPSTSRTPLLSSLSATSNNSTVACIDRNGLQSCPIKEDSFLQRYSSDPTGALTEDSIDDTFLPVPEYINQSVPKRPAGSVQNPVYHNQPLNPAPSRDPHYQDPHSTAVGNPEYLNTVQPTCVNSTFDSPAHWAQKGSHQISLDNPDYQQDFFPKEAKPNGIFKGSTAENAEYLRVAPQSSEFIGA
# Method in brief: as §1
# [1] = biological target: T7, EGFR[T790M/C797S/d746-750] (Homo sapiens, UniProt P00533, C797S/DEL746-750/T790M); assay: Inhibition of EGFR[T790M/C797S/d746-750] biochemical enzymatic activity (HTRF)
# T7 construct: purchased Carna Bio
# T7 sequence (P00533 with tags, fused parts or gaps DEL746-750/T790M/C797S limits assumed): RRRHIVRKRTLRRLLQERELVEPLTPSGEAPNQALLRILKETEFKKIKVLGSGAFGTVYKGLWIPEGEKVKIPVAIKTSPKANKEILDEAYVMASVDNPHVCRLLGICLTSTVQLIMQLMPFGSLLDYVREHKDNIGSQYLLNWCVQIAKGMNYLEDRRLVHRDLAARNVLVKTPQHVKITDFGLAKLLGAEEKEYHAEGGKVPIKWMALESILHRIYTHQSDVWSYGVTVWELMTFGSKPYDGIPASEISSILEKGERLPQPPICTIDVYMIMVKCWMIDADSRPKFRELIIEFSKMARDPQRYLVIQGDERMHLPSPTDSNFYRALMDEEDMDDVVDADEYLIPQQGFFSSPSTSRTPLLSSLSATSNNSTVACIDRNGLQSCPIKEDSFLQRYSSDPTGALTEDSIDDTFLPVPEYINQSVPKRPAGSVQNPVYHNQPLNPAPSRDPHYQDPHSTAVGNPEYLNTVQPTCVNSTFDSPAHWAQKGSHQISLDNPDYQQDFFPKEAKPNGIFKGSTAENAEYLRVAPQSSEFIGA
# Method in brief: as §1
# EGFR (d746-750 C797S) = biological target: T8, EGFR (d746-750 C797S) (Homo sapiens, UniProt P00533, C797S/DEL746-750); assay: Inhibition of EGFR (d746-750 C797S) biochemical enzymatic activity (HTRF); settings: 1 mM ATP
# T8 construct: purchased signalchem
# T8 sequence (P00533 with tags, fused parts or gaps DEL746-750/C797S limits assumed): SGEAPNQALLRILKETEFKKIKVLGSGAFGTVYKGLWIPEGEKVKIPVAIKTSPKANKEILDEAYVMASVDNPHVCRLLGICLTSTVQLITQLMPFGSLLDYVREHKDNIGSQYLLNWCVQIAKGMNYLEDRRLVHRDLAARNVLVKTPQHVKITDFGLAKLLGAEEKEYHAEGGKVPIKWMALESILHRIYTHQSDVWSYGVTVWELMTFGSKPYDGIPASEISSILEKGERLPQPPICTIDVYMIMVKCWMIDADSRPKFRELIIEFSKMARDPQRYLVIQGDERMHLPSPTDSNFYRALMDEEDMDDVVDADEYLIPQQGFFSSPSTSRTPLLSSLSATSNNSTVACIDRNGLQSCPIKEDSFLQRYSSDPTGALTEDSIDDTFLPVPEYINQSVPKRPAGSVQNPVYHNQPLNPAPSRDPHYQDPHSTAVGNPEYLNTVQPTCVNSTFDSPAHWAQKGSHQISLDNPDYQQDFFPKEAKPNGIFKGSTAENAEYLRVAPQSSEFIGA
# Method in brief: as §1
# EGFR (C797S L858R) = biological target: T9, EGFR (C797S L858R) (Homo sapiens, UniProt P00533, C797S/L858R); assay: Inhibition of EGFR (C797S L858R) biochemical enzymatic activity (HTRF); settings: 1 mM ATP
# T9 construct: purchased signalchem
# Method in brief: as §1
# [2] = tested on: Ba/F3 cells expressing EGFR mutations; assay: Cell proliferation assay, Ba/F3 cells expressing EGFR mutations (CellTiter-Glo, 72 hours); type: cell-based
# Method in brief: (§2)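 Growth over 72 h was quantified by CellTiter-Glo luminescence, normalised as (G3 − G0)/(DMSO G3 − G0), for PC-9 cells seeded at 500/well and EGFR-mutant Ba/F3 cells at 5000/well in RPMI1640. Compound concentration series added after overnight incubation; GI50 obtained from best-fit curves.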
# PC-9 = assay: Cell proliferation assay, PC-9 cells (CellTiter-Glo, 72 hours); type: cell-based; settings: PC9 cells, read-out: GI50 PC9
# Method in brief: as §2
# A-431 = assay: Cell proliferation assay, A-431 cells (GI50, Table 6); type: cell-based
# [3] = EGFR WT, 1 h, room temperature, read-out: IC50 (nM) @WT
# [4] = 1 h, room temperature, read-out: IC50 (nM) @L858R
# [5] = EGFR L858R-T790M, 1 h, room temperature, read-out: IC50 (nM) @L858R-T790M
# [6] = EGFR Del19, 1 mM ATP, 1 h, room temperature
# [7] = EGFR Del19-T790M, 1 h, room temperature, read-out: IC50 (nM) @Del19-T790M
# [8] = EGFR T790M-C797S-L858R, 1 h, room temperature, read-out: IC50 (nM) @T790M- C797S - L858R
# [9] = EGFR T790M-C797S-Del19, 1 mM ATP, 1 h, room temperature, read-out: IC50 (nM) @T790M - C797S - Del19
# [10] = EGFR Del19-C797S, 1 h, room temperature, read-out: IC50 (nM) @Del19-C797S
# [11] = EGFR L858-C797S, 1 h, room temperature, read-out: IC50 (nM) @L858-C797S
# [12] = Mus musculus, BaF3, 72 h, BaF3 cells, EGFR DEL19 - C797S, read-out: GI50 DEL19 - C797S/BaF3
# [13] = Mus musculus, BaF3, 72 h, BaF3 cells, EGFR DEL19 - T790-C797S, read-out: GI50 DEL19 - T790-C797S/BaF3
# [14] = Mus musculus, BaF3, 72 h, BaF3 cells, EGFR L858R - C797S, read-out: GI50 L858R - C797S/BaF3
# [15] = Mus musculus, BaF3, 72 h, BaF3 cells, EGFR L858R - T790-C797S, read-out: GI50 L858R - T790-C797S/BaF3
# [16] = Mus musculus, BaF3, 72 h, BaF3 cells, EGFR L858R - T790M, read-out: GI50 L858R - T790M/BaF3
# [17] = Mus musculus, BaF3, 72 h, BaF3 cells, EGFR L858R, read-out: GI50 L858R/BaF3
# [18] = Mus musculus, BaF3, 72 h, EGFR DEL19 - T790M, read-out: GI50 DEL19 - T790M
# [19] = Homo sapiens, A-431, A-431 cells
# [20] = EGFR wild type, 1 h at room temperature, read-out: IC50 @WT
# [21] = 1 h at room temperature, read-out: IC50 @L858R
# [22] = EGFR L858R/T790M, 1 h at room temperature, read-out: IC50 @L858R-T790M
# [23] = EGFR Exon19Del, 1 mM ATP, 1 h at room temperature
# [24] = EGFR Exon19Del/T790M, 1 h at room temperature, read-out: IC50 @Del19-T790M
# [25] = EGFR[T790M/C797S/L858R], 1 h at room temperature, read-out: IC50 @T790M- C797S - L858R
# [26] = EGFR[T790M/C797S/d746-750], 1 mM ATP, 1 h at room temperature, read-out: IC50 @T790M - C797S - Del19
# [27] = EGFR (d746-750 C797S), 1 h at room temperature, read-out: IC50 @Del19-C797S
# [28] = EGFR (C797S L858R), 1 h at room temperature, read-out: IC50 @L858-C797S
# T1 sequence (P00533 25-1210): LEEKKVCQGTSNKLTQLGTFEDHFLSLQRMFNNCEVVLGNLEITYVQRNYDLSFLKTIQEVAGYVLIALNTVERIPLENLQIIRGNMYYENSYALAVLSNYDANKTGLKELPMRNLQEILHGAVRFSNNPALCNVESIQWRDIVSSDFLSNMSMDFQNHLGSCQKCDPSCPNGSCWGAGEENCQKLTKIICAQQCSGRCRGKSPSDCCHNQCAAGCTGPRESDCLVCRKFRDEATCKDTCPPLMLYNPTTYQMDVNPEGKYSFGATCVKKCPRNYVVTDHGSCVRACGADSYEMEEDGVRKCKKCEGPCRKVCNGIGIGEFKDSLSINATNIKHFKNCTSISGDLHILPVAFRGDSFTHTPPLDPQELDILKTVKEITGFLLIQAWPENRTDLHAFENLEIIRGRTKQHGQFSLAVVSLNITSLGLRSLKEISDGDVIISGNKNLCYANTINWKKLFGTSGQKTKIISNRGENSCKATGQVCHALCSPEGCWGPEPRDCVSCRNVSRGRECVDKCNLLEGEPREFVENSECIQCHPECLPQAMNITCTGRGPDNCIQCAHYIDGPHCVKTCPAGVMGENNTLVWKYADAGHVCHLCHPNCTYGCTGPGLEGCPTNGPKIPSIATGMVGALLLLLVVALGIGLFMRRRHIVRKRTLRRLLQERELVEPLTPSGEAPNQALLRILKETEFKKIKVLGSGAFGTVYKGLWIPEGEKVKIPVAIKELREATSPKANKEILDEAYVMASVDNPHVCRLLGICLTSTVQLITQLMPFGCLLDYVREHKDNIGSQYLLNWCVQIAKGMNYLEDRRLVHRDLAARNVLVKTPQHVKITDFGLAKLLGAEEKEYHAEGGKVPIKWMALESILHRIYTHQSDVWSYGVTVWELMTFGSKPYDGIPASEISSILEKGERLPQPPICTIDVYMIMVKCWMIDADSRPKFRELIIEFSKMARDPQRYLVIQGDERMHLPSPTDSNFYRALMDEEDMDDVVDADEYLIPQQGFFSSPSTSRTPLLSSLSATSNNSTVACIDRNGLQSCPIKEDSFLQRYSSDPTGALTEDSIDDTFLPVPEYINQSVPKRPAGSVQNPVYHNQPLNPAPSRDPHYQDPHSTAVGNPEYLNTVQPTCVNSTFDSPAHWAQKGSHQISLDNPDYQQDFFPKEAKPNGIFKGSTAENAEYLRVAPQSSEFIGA
IC50 (EGFR wild type; [3]) [nM],IC50 (EGFR L858R; [4]) [nM],"GI50 [2, 12] [nM]","GI50 [2, 13] [nM]","GI50 [2, 14] [nM]","GI50 [2, 15] [nM]","GI50 [2, 16] [nM]","GI50 [2, 17] [nM]","GI50 [2, 18] [nM]","GI50 (PC-9; Homo sapiens, PC-9, 72 h) [nM]",GI50 (A-431; [19]) [nM],IC50 (EGFR wild type; [20]) [nM],IC50 (EGFR L858R; [21]) [nM],IC50 (EGFR L858R/T790M; [22]) [nM],IC50 (EGFR Exon19Del; [23]) [nM],IC50 (EGFR Exon19Del/T790M; [24]) [nM],IC50 (EGFR[T790M/C797S/L858R]; [25]) [nM],"IC50 [1, 26] [nM]",IC50 (EGFR (d746-750 C797S); [27]) [nM],IC50 (EGFR (C797S L858R); [28]) [nM],also measured,SMILES
> 5000,1480,95,20,736,51,98,751,22,410,4390,,,,,,,,,,"IC50 (EGFR L858R/T790M; [5]): 15 nM; IC50 (EGFR Exon19Del; [6]): 150 nM; IC50 (EGFR Exon19Del/T790M; [7]): 6.5 nM; IC50 (EGFR[T790M/C797S/L858R]; [8]): 23 nM; IC50 [1, 9]: 13 nM; IC50 (EGFR (d746-750 C797S); [10]): 2200 nM; IC50 (EGFR (C797S L858R); [11]): 112 nM","Cc1cc2cc(n1)-c1cnn(C)c1OCCN1CC3CCC(CC3)(C1)n1c(nc3ccccc31)NC2=O [Example B1, 15,21-Dimethyl-23-oxa-2,9,11,16,20,21,26-heptaazaheptacyclo[26.2.2.1^{1,26}.1^{13,17}.0^{2,10}.0^{3,8}.0^{18,22}]tetratriaconta-3,5,7,9,13,15,17(34),18(22),19-nonaen-12-one]"
,,17,5,116,11,34,85,5,98,7810,> 5000,320,17,23,9.5,5.9,7.8,14,145,,Cc1cc2cc(n1)-c1cnn(C)c1OCCN1CC3CCC(CC3)(C1)n1c(nc3ccc(N4CC[C@H](N(C)C)C4)cc31)NC2=O [Example B28]
4060,189,7.9,43,34,21,64,7,30,35,3740,,,,,,,,,,"IC50 (EGFR L858R/T790M; [5]): 582 nM; IC50 (EGFR Exon19Del; [6]): 29 nM; IC50 (EGFR Exon19Del/T790M; [7]): 18 nM; IC50 (EGFR[T790M/C797S/L858R]; [8]): 359 nM; IC50 [1, 9]: 15 nM; IC50 (EGFR (d746-750 C797S); [10]): 25 nM; IC50 (EGFR (C797S L858R); [11]): 128 nM",CN(C)CCCN(C)c1ccc2nc3n(c2c1)C12CCC(CC1)CN(CCOc1c(cnn1C)-c1cc(cn(C)c1=O)C(=O)N3)C2 [Example A125]
,,3,2,35,4,9,22,2,33,3560,> 5000,110,11,17,12,5.6,4.9,8.7,64,,Cc1cc2cc(n1)-c1cnn(C)c1OCCN1CC3CCC(CC3)(C1)n1c(nc3ccc(N4CCC5(CC4)CCN5C)cc31)NC2=O [Example B30]
,,,,,,,,,,,2750,134,5.9,12,5.5,3.1,3.2,4.2,33,"GI50 ([2]; BaF3 cells, EGFR DEL19 - C797S, read-out: GI50 DEL19 - C797S/BaF3): 2 nM; GI50 ([2]; BaF3 cells, EGFR DEL19 - T790-C797S, read-out: GI50 DEL19 - T790-C797S/BaF3): 2 nM; GI50 ([2]; BaF3 cells, EGFR L858R - C797S, read-out: GI50 L858R - C797S/BaF3): 9 nM; GI50 ([2]; BaF3 cells, EGFR L858R - T790-C797S, read-out: GI50 L858R - T790-C797S/BaF3): 2 nM; GI50 ([2]; BaF3 cells, EGFR L858R - T790M, read-out: GI50 L858R - T790M/BaF3): 2 nM; GI50 ([2]; BaF3 cells, EGFR L858R, read-out: GI50 L858R/BaF3): 13 nM; GI50 ([2]; EGFR DEL19 - T790M, read-out: GI50 DEL19 - T790M): 2 nM; GI50 (PC-9): 9 nM; GI50 (A-431; A-431 cells): 532 nM","Cc1cc2cc(n1)-c1cnn(C)c1OCCN1CC3CCC(C3)(C1)n1c(nc3ccc(N4CCN(C5COC5)CC4)cc31)NC2=O (single isomer, unassigned) [Example B58B]"
> 5000,65,12,45,32,20,59,5.8,27,25,6110,,,,,,,,,,"IC50 (EGFR L858R/T790M; [5]): 223 nM; IC50 (EGFR Exon19Del; [6]): 13 nM; IC50 (EGFR Exon19Del/T790M; [7]): 13 nM; IC50 (EGFR[T790M/C797S/L858R]; [8]): 23 nM; IC50 [1, 9]: 11 nM; IC50 (EGFR (d746-750 C797S); [10]): 9.4 nM; IC50 (EGFR (C797S L858R); [11]): 57 nM",CN1CCC2(CC1)CCN(c1ccc3nc4n(c3c1)C13CCC(CC1)CN(CCOc1c(cnn1C)-c1cc(cn(C)c1=O)C(=O)N4)C3)C2 [Example A123]
,,27,8,234,15,29,200,10,186,3420,> 5000,734,7.6,24,5.8,2.9,3.7,10,159,,Cc1cc2cc(n1)-c1cnn(C)c1OCCN1CC3CCC(CC3)(C1)n1c(nc3ccc(N4CCN(C5CC5)CC4)cc31)NC2=O [Example B36]
,,26,10,82,6,21,114,8.7,71,1090,> 5000,> 5000,> 5000,> 5000,128,4160,51,2110,> 5000,,"Cc1cc2cc(n1)-c1cnn(C)c1OCCCCCn1c(nc3ccc4c(c31)CCN(C1COC1)C4)NC2=O [Example B17, 5,30-Dimethyl-18-(oxetan-3-yl)-7-oxa-4,5,13,18,24,26,31-heptaazahexacyclo[26.3.1.0^{2,6}.0^{13,25}.0^{14,23}.0^{15,20}]dotriaconta-1(31),2(6),3,14,20,22,24,28(32),29-nonaen-27-one]"
